{"source": "PubChem BioAssay (NCI)", "experiment_in_all_cases": "NCI anticancer screen, dose series, 384-well format", "key": {"786-0 renal": {"system": "786-0 renal"}, "BT-549 breast": {"system": "BT-549 breast"}, "CCRF-CEM leukemia": {"system": "CCRF-CEM leukemia"}, "COLO 205 colon": {"system": "COLO 205 colon"}, "HL-60(TB) leukemia": {"system": "HL-60(TB) leukemia"}, "IGROV1 ovarian": {"system": "IGROV1 ovarian"}, "KM12 colon": {"system": "KM12 colon"}, "MOLT-4 leukemia": {"system": "MOLT-4 leukemia"}, "OVCAR-4 ovarian": {"system": "OVCAR-4 ovarian"}, "PC-3 prostate": {"system": "PC-3 prostate"}, "RPMI-8226 leukemia": {"system": "RPMI-8226 leukemia"}, "SF-539 CNS": {"system": "SF-539 CNS"}, "U251 glioblastoma": {"system": "U251 glioblastoma"}}, "note": "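The concentration for 50% growth inhibition is given as GI50. TGI is the concentration that stops growth completely.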", "data": [{"smiles": "COc1cc2c(Nc3cc(Cl)c(OC)c(Cl)c3)c(C#N)cnc2cc1OCCCN1CCN(C)CC1", "values": [{"measurement": "GI50", "setting": "786-0 renal", "value": 0.672, "unit": "µM"}, {"measurement": "TGI", "setting": "786-0 renal", "value": 1.99, "unit": "µM"}, {"measurement": "GI50", "setting": "BT-549 breast", "value": 0.785, "unit": "µM"}, {"measurement": "TGI", "setting": "BT-549 breast", "value": 2.08, "unit": "µM"}, {"measurement": "GI50", "setting": "CCRF-CEM leukemia", "value": 0.239, "unit": "µM"}, {"measurement": "TGI", "setting": "CCRF-CEM leukemia", "value": 0.486, "unit": "µM"}, {"measurement": "GI50", "setting": "COLO 205 colon", "value": 0.765, "unit": "µM"}, {"measurement": "TGI", "setting": "COLO 205 colon", "value": 2.05, "unit": "µM"}, {"measurement": "GI50", "setting": "HL-60(TB) leukemia", "value": 0.795, "unit": "µM"}, {"measurement": "TGI", "setting": "HL-60(TB) leukemia", "value": 2.06, "unit": "µM"}, {"measurement": "GI50", "setting": "IGROV1 ovarian", "value": 0.145, "unit": "µM"}, {"measurement": "TGI", "setting": "IGROV1 ovarian", "value": 1.03, "unit": "µM"}, {"measurement": "GI50", "setting": "KM12 colon", "value": 0.412, "unit": "µM"}, {"measurement": "TGI", "setting": "KM12 colon", "value": 1.58, "unit": "µM"}, {"measurement": "GI50", "setting": "MOLT-4 leukemia", "value": 0.163, "unit": "µM"}, {"measurement": "TGI", "setting": "MOLT-4 leukemia", "value": 0.313, "unit": "µM"}, {"measurement": "GI50", "setting": "OVCAR-4 ovarian", "value": 0.808, "unit": "µM"}, {"measurement": "TGI", "setting": "OVCAR-4 ovarian", "value": 2.17, "unit": "µM"}, {"measurement": "GI50", "setting": "PC-3 prostate", "value": 1.32, "unit": "µM"}, {"measurement": "TGI", "setting": "PC-3 prostate", "value": 2.88, "unit": "µM"}, {"measurement": "GI50", "setting": "RPMI-8226 leukemia", "value": 0.184, "unit": "µM"}, {"measurement": "TGI", "setting": "RPMI-8226 leukemia", "value": 0.366, "unit": "µM"}, {"measurement": "GI50", "setting": "SF-539 CNS", "value": 0.222, "unit": "µM"}, {"measurement": "TGI", "setting": "SF-539 CNS", "value": 0.484, "unit": "µM"}, {"measurement": "GI50", "setting": "U251 glioblastoma", "value": 1.24, "unit": "µM"}, {"measurement": "TGI", "setting": "U251 glioblastoma", "value": 2.51, "unit": "µM"}]}]}
